This is an account of results in PMC7674464, “Effect of pH on the influenza fusion peptide properties unveiled by constant-pH molecular dynamics simulations combined with experiment” (Scientific Reports, 2020).

For data set [1] the following is noted: 16000 nM, pH 7.4.
Test in data set [2]: not given
This is another data set of the same source.

The target of data set [3] is Glu11 (UniProt position 354, IAGFIEGGWTG). The experiment in a line: NMR. The conditions noted are these: micelle-bound peptide with lysine tail; cited from earlier work.
In data set [4] the target is Asp19 (UniProt position 362, WTGMIDGWYGY). The data set can be described thus: NMR. The conditions noted are these: micelle-bound peptide with lysine tail; cited from earlier work.
The target in data set [5] is Nterm1 (UniProt position 344, SIQSRGLFGAI). The experiment in a line: NMR. As to conditions: micelle-bound peptide with lysine tail; cited from earlier work.

Read-outs that look alike come from different tables or passages of the source. Where no end group is shown, it is not given here.

For the substance “GLFGAIAGFIEGGWTGMIDGWYGS [influenza fusion peptide]”, in data set [1], the “percentage of lipid mixing” value is reported as 23.9 ± 1.8%. The “partition coefficient (Kp) between the aqueous and lipid phases” value is given as “(1.0 ± 0.1) × 10^4” (pH 5) and “(2.9 ± 0.4) × 10^4” (pH 7.4). In addition, in data set [2], the amide I band peak position worked out at 1660 cm⁻¹.
Turning to “Influenza hemagglutinin HA2 fusion peptide (HAfp23) with C-terminal hydrophilic lysine tail (Influenza A virus (subtype H1; strain not stated))”, the figures for the pKa in data set [3], in data set [4] and in data set [5] were 5.31, 4.35 and 8.8, respectively.
